Laboratory results reported in US20250214991A1 (Oncopia Therapeutics, Inc. d/b/a/ SK Life Science Labs, priority 2022, published 2025).

Key:
CRBN/DDB1 = CRBN/DDB1 (Homo sapiens (Human), UniProt Q96SW2); assay: IC50 measurements for binding to CRBN/DDB1 (HTRF); settings: His tagged CRBN+DDB, Cy5-labeled Thalidomide probe, one hour
Experimental: In vitro Assay: IC50 Measurements for binding to CRBN/DDB1 (Table E1)
The binding potency was determined using HTRF assay technology (Perkin Elmer). Compounds were serially diluted in DMSO and 0.2 μL volume was transferred to white 384-well plate. The reaction was conducted in total volume of 20 μL with addition of 2 nM His tagged CRBN+DDB−DLS7+CXU4 (Wuxi, catalogue #RP210521GA) to compounds followed by addition of 60 nM Fluorescent probe Cy5-labeled Thalidomide (Tenova Pharma, catalogue #T52461), and 0.4 nM of MAb Anti-6HIS Tb cryptate Gold (Cisbio, catalogue #61HI2TLA in the assay buffer (50 mM HEPES pH 7.5, 1 mM TCEP, 0.01% Brij-35, 50 mM NaCl, and 0.1% BSA). After one hour incubation at room temperature, the HTRF signals were read on Envision reader (Perkin Elemer). Data was analyzed using XLfit using four parameters dose response curve to determine IC50s. A: IC50<0.1 μM; B: 0.1 μM<IC50<[…]; C: 0.5 μM<IC50<1 μM; D: 1 μM<IC50<5 μM; E: 5 μM<IC50<10 μM

IKZF2 = IKZF2 (Homo sapiens (Human), UniProt Q96SW2+Q9UKS7); assay: In vitro IKZF2 HiBit Assay (HEK293T Flp-in-HiBiT cells); assay type: cell-based; settings: HEK293T Flp-in-HiBiT cells, 6 hrs incubation; for DC50: read-out: IKZF2 HiBit DC50; for Dmax: HEK-293T, read-out: IKZF2 HiBit Dmax (%)
Procedure, shortened: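 HEK293T Flp-in cells carrying an endogenous N-terminal HiBiT tag on IKZF2 were exposed to compound for 6 h at 0.1% DMSO. The dilution series was 11 doses at 3-fold, diluted from 1 mM. Nano-Glo HiBiT lytic luminescence, normalized to DMSO, gave DC50 for 50% degradation and Dmax across the concentration range, both reported in letter bins.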

IKZF1 = IKZF1 (Homo sapiens (Human), UniProt Q13422+Q96SW2); assay: In vitro IKZF1 HiBit Assay (HEK293T Flp-in-HiBiT-IKZF1 stable cell line); assay type: cell-based; settings: HEK293T Flp-in-HiBiT-IKZF1 stable cell line, 6 hrs incubation; for DC50: read-out: IKZF1 HiBit DC50; for Dmax: HEK-293T, read-out: IKZF1 HiBit Dmax (%)
Procedure, shortened: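 HEK293T Flp-in cells carrying N-terminal HiBiT-tagged IKZF1 were exposed to compound (0.1% DMSO) for 6 h at 3000 cells/well. HiBiT luminescence was read after lytic LgBiT detection. DC50 and Dmax were taken from DMSO-normalized dose-response curves.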

Sequence of IKZF1 (Q13422 whole entry): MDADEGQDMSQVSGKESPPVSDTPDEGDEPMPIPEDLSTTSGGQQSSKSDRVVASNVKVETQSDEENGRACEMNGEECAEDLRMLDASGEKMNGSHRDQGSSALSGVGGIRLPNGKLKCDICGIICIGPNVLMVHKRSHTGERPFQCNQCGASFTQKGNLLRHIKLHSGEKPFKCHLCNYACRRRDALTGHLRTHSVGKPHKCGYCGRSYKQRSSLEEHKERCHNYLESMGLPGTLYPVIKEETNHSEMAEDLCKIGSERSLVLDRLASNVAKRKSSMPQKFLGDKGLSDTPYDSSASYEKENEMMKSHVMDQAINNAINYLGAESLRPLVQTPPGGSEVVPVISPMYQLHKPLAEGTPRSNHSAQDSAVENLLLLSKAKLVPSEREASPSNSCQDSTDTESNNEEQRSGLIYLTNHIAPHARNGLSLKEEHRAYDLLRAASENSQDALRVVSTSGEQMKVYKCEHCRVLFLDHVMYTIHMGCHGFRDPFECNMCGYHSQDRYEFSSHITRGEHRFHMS
Sequence of IKZF1 (Q96SW2 whole entry): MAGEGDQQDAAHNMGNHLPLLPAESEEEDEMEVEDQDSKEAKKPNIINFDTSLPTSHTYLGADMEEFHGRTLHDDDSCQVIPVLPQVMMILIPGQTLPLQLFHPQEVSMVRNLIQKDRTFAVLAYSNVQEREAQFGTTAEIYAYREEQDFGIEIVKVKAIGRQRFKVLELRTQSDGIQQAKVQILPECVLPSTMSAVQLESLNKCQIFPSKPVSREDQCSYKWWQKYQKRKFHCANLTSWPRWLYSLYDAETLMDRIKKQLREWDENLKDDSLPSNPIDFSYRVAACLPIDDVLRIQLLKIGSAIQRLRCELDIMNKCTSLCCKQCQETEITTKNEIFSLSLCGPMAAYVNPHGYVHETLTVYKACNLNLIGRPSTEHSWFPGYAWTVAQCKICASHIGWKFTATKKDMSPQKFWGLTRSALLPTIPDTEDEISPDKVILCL
Sequence of IKZF1 (Q16531 2-1140 partner): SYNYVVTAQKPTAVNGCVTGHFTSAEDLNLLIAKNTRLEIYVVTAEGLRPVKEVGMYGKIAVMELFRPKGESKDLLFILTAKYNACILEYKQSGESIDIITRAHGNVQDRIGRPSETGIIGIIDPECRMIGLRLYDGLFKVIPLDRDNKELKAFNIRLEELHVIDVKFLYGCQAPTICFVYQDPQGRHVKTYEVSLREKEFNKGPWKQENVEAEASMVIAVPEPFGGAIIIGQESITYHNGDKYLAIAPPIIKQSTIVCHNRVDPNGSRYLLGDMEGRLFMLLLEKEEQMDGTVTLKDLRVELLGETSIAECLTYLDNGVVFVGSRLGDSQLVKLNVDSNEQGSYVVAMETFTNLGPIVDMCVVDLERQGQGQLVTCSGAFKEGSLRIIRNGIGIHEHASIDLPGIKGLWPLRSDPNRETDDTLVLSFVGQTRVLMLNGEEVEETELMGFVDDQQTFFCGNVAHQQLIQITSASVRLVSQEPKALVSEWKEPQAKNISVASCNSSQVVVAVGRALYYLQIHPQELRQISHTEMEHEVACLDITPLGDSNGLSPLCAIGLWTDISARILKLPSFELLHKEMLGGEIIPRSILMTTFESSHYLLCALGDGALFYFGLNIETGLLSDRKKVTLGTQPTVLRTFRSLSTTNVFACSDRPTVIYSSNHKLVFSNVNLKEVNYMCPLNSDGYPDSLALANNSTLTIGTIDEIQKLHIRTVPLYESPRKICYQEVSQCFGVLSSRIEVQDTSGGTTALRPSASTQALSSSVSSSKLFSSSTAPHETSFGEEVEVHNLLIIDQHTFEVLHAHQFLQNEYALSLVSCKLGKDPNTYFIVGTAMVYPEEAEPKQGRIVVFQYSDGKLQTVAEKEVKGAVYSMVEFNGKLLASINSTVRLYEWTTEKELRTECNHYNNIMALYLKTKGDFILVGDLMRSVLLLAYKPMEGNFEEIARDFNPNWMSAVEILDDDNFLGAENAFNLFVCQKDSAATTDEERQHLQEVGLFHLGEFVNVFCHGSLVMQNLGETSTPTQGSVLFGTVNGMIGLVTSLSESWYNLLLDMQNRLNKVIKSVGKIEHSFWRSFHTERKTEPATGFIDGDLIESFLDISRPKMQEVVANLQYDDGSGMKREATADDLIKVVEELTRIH
Sequence of IKZF2 (Q9UKS7 whole entry): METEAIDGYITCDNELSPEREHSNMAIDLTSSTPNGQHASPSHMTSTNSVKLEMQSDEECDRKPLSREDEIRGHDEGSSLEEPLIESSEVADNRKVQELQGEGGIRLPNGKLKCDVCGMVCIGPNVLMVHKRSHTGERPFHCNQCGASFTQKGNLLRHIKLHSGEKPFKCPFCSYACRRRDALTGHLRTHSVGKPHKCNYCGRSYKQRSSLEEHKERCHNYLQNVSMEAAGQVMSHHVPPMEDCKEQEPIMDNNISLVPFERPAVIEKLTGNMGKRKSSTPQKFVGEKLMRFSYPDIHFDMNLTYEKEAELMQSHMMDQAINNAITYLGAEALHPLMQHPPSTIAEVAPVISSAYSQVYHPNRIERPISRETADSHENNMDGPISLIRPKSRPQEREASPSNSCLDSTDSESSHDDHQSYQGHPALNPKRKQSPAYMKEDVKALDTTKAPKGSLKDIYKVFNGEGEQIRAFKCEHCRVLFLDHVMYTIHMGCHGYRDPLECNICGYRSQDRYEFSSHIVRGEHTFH
Sequence of IKZF2 (Q96SW2 whole entry): as the sequence (Q96SW2 whole entry) above
Sequence of IKZF2 (Q16531 2-1140 partner): as the sequence (Q16531 2-1140 partner) above
Sequence of CRBN/DDB1 (Q96SW2 whole entry, species assumed): as the sequence (Q96SW2 whole entry) above
Sequence of CRBN/DDB1 (Q16531 whole entry partner, species assumed): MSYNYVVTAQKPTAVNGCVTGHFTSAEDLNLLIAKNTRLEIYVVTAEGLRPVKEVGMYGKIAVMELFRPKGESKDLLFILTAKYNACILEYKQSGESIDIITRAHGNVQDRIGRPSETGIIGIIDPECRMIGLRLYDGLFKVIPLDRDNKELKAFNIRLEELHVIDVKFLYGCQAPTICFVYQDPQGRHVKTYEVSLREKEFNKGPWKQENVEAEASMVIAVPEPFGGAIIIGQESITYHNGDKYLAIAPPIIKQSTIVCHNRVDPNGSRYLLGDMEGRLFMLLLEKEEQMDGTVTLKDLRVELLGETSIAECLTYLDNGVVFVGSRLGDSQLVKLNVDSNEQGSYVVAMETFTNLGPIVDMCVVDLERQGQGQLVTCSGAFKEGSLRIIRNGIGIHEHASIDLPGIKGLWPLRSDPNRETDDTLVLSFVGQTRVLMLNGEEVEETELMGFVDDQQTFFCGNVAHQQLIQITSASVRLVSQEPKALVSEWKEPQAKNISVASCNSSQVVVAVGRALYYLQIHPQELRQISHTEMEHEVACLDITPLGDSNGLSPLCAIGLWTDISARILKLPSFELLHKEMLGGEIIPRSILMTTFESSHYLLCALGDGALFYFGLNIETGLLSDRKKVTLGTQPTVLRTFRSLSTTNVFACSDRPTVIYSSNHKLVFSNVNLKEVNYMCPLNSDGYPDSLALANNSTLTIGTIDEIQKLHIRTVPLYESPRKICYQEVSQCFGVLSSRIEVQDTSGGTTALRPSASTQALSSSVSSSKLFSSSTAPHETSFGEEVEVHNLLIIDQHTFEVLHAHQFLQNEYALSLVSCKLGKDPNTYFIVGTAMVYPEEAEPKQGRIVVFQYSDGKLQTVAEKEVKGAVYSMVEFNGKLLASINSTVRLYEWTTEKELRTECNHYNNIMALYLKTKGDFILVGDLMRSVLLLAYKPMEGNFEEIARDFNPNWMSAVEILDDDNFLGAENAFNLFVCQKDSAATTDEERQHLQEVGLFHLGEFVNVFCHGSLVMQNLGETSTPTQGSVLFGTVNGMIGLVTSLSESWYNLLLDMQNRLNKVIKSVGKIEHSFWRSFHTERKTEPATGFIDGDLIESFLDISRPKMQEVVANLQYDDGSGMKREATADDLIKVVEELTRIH

Compound | IC50 (CRBN/DDB1) [nM] | DC50 (IKZF2) [nM] | Dmax (IKZF2) [%] | DC50 (IKZF1) [nM] | Dmax (IKZF1) [%]
Cn1ccc2c(CN3CCCC3)cc(-c3cc4c(cc3F)C(=O)N(C3CCC(=O)NC3=O)C4)nc21 (stereo not shown) [Example 82, 3-(6-fluoro-5-(1-methyl-4-(pyrrolidin-1-ylmethyl)-1H-pyrrolo[2,3-b]pyridin-6-yl)-1-oxoisoindolin-2-yl) piperidine-2,6-dione] | 5000 to 10000 | 100 to 1000 | 20 to 40 | > 10000 | < 20
Cn1ccnc1N1CCN(Cc2cc(-c3ccc4c(c3)CN(C3CCC(=O)NC3=O)C4=O)nc3c2ccn3C)CC1 (stereo not shown) [Example 99, 3-(5-(1-methyl-4-((4-(1-methyl-1H-imidazol-2-yl)piperazin-1-yl)methyl)-1H-pyrrolo[2,3-b]pyridin-6-yl)-1-oxoisoindolin-2-yl) piperidine-2,6-dione] | 100 to 500 | 10 to 100 | 40 to 60 | > 10000 | < 20
Cn1ccc2c(CN3CC4(CCC4)C3)cc(-c3ccc4c(c3)CN(C3CCC(=O)NC3=O)C4=O)nc21 (stereo not shown) [Example 112, 3-(5-(4-((2-azaspiro[3.3]heptan-2-yl)methyl)-1-methyl-1H-pyrrolo[2,3-b]pyridin-6-yl)-1-oxoisoindolin-2-yl) piperidine-2,6-dione] | 100 to 500 | < 1 | > 80 | 10 to 100 | 20 to 40
CC(C)C1CCN(Cc2cc(-c3ccc4c(c3)CN(C3CCC(=O)NC3=O)C4=O)nc3[nH]ccc23)C1 (stereo not shown) [Example 146] | 100 to 500 | 1 to 10 | > 80 | 1 to 10 | 40 to 60
CN(C)C(=O)Cn1ccc2c(CN3CCCC3)cc(-c3ccc4c(c3)CN(C3CCC(=O)NC3=O)C4=O)nc21 (stereo not shown) [Example 149, 2-(6-(2-(2,6-dioxopiperidin-3-yl)-1-oxoisoindolin-5-yl)-4-(pyrrolidin-1-ylmethyl)-1H-pyrrolo[2,3-b]pyridin-1-yl)-N,N-dimethylacetamide] | 1000 to 5000 | 100 to 1000 | 20 to 40 | > 10000 | < 20
COc1n[nH]c2c(CN3CCCC3)cc(-c3ccc4c(c3)CN(C3CCC(=O)NC3=O)C4=O)nc12 (stereo not shown) [Example 235, 3-(5-(3-methoxy-7-(pyrrolidin-1-ylmethyl)-1H-pyrazolo[4,3-b]pyridin-5-yl)-1-oxoisoindolin-2-yl) piperidine-2,6-dione] | 5000 to 10000 | 1 to 10 | 60 to 80 | 100 to 1000 | 20 to 40
Cn1ccc2c(CN3CCC(n4cccn4)CC3)cc(-c3ccc4c(c3)CN(C3CCC(=O)NC3=O)C4=O)nc21 (stereo not shown) [Example 94, 3-(5-(4-((4-(1H-pyrazol-1-yl)piperidin-1-yl)methyl)-1-methyl-1H-pyrrolo[2,3-b]pyridin-6-yl)-1-oxoisoindolin-2-yl) piperidine-2,6-dione] | < 100 | 1 to 10 | 60 to 80 | > 10000 | < 20
Cn1ccc2c(CN3CCN(S(C)(=O)=O)CC3)cc(-c3ccc4c(c3)CN(C3CCC(=O)NC3=O)C4=O)nc21 (stereo not shown) [Example 61, 3-(5-(1-methyl-4-((4-(methylsulfonyl)piperazin-1-yl)methyl)-1H-pyrrolo[2,3-b]pyridin-6-yl)-1-oxoisoindolin-2-yl) piperidine-2,6-dione] | 500 to 1000 | 10 to 100 | 40 to 60 | > 10000 | < 20
O=C1CCC(N2Cc3cc(-c4cc(CN5CCC(F)C5)c5ccn(C6COC6)c5n4)ccc3C2=O)C(=O)N1 (stereo not shown) [Example 157, 3-(5-(4-((3-fluoropyrrolidin-1-yl)methyl)-1-(oxetan-3-yl)-1H-pyrrolo[2,3-b]pyridin-6-yl)-1-oxoisoindolin-2-yl) piperidine-2,6-dione] | 500 to 1000 | 1 to 10 | > 80 | > 10000 | < 20
O=C1CCC(N2Cc3cc(-c4cc(CN5CCCC5)c5ncccc5n4)ccc3C2=O)C(=O)N1 (stereo not shown) [Example 104, 3-(1-oxo-5-(4-(pyrrolidin-1-ylmethyl)-1,5-naphthyridin-2-yl)isoindolin-2-yl) piperidine-2,6-dione] | 500 to 1000 | 1 to 10 | > 80 | > 10000 | 20 to 40
Nc1nn(C2COC2)c2c(CN3CCCC3)cc(-c3ccc4c(c3)CN(C3CCC(=O)NC3=O)C4=O)nc12 (stereo not shown) [Example 234, 3-(5-(3-amino-1-(oxetan-3-yl)-7-(pyrrolidin-1-ylmethyl)-1H-pyrazolo[4,3-b]pyridin-5-yl)-1-oxoisoindolin-2-yl) piperidine-2,6-dione] | 1000 to 5000 | 10 to 100 | 60 to 80 | 1000 to 10000 | 20 to 40
COc1cc2c(cc1-c1cc(CN3CCCC3)cc3cncn13)CN(C1CCC(=O)NC1=O)C2=O (stereo not shown) [Example 30, 3-(6-methoxy-1-oxo-5-(7-(pyrrolidin-1-ylmethyl)imidazo[1,5-a]pyridin-5-yl)isoindolin-2-yl) piperidine-2,6-dione] | 1000 to 5000 | 1000 to 10000 | < 20 | > 10000 | < 20
O=C1CCC(N2Cc3cc(-c4ncn5ccc(CN6CCCC6)cc45)ccc3C2=O)C(=O)N1 (stereo not shown) [Example 312, 3-(1-oxo-5-(7-(pyrrolidin-1-ylmethyl)imidazo[1,5-a]pyridin-1-yl)isoindolin-2-yl) piperidine-2,6-dione] | 1000 to 5000 | 10 to 100 | 20 to 40 | > 10000 | < 20
O=C1CCC(N2Cc3cc(-c4cc(CN5CCC5)c5[nH]ccc5n4)ccc3C2=O)C(=O)N1 (stereo not shown) [Example 156, 3-(5-(7-(azetidin-1-ylmethyl)-1H-pyrrolo[3,2-b]pyridin-5-yl)-1-oxoisoindolin-2-yl) piperidine-2,6-dione] | 1000 to 5000 | 1 to 10 | > 80 | 10 to 100 | 20 to 40
Cn1ccc2c(CN3CCC4(CCC4)CC3)cc(-c3ccc4c(c3)CN(C3CCC(=O)NC3=O)C4=O)nc21 (stereo not shown) [Example 69, 3-(5-(4-((7-azaspiro[3.5]nonan-7-yl)methyl)-1-methyl-1H-pyrrolo[2,3-b]pyridin-6-yl)-1-oxoisoindolin-2-yl) piperidine-2,6-dione] | 100 to 500 | < 1 | > 80 | > 10000 | 20 to 40
Cn1ccc2c(CN3CC4COCC(C4)C3)cc(-c3ccc4c(c3)CN(C3CCC(=O)NC3=O)C4=O)nc21 (stereo not shown) [Example 70, 3-(5-(4-((3-oxa-7-azabicyclo[3.3.1]nonan-7-yl)methyl)-1-methyl-1H-pyrrolo[2,3-b]pyridin-6-yl)-1-oxoisoindolin-2-yl) piperidine-2,6-dione] | 1000 to 5000 | 1 to 10 | > 80 | > 10000 | < 20
Nc1n[nH]c2c(CN3CCC3)cc(-c3ccc4c(c3)CN(C3CCC(=O)NC3=O)C4=O)nc12 (stereo not shown) [Example 208, 3-(5-(3-amino-7-(azetidin-1-ylmethyl)-1H-pyrazolo[4,3-b]pyridin-5-yl)-1-oxoisoindolin-2-yl) piperidine-2,6-dione] | < 100 | 100 to 1000 | 60 to 80 | > 10000 | < 20
